pIC50: −log10 of the molar value.
How the values were obtained:
Type in all cases: cell-based
GLUT1 = biological target: T1, GLUT1 (Homo sapiens, UniProt P11166); test: GLUT1 transporter activity assay (2-DG uptake) in DLD1 cells; conditions: DLD1 cell line; read-out: GLUT1 inhibitory activity (IC50)
T1 construct: host or cells: DLD-1 (DLD1) cells
T1 sequence (P11166 1-492): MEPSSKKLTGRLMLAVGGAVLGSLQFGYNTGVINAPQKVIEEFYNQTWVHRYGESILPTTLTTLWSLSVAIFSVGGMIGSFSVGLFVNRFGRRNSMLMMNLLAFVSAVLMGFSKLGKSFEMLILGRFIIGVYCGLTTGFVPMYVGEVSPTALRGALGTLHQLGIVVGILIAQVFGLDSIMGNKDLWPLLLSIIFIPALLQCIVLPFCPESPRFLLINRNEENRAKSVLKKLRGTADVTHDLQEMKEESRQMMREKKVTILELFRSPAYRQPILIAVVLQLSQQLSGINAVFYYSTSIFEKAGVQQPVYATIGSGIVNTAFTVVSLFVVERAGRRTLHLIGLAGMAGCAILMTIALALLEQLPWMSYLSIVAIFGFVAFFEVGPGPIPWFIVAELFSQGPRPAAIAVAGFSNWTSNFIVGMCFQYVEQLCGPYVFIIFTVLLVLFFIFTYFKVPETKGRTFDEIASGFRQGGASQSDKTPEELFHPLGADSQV
Excerpt: (§1) GLUT 1, 2, 3 and 4 Transporter Activity Assays
(§2) Assays were based on the specificity assays reported by Kapoor et al., Proceedings of the National Academy of Sciences 2016, 113 (17) 4711-4716. For GLUT1, GLUT2, GLUT3 and GLUT4 specificity testing DLD1, CHO-hGLUT2, DLD-1-GLUT1−/− and CHO-hGLUT4 cell lines were used.
(§3) Assay protocols for 2-deoxy-Glucose (2-DG) Uptake Assay with DLD1 or DLD1-Glut1(−/−) cells or 7,000 CHOK1-SLC2A4 cells lines:
(§4) 14,000 DLD1 or DLD1-Glut1(−/−) cells or 7,000 CHOK1-SLC2A4 cells were seeded in black, clear bottom 384-well plates in glucose- and phenolred-free RPMI1640 medium supplemented with 1% FCS and 2 mM L-glutamine and allowed to attach overnight. Next day, cells were washed and incubated with compounds or DMSO and 1 mM 2-DG in glucose- and phenolred-free RPMI1640 medium for 30 min. Cells were then washed and lysed in 0.06 M HCl and 1% CHAPS for 15 min at 65° C. The amount of 2-DG in the lysate was determined by means of enzyme-coupled assay. For this 16 U/mL glucose-6-phosphate dehydrogenase, 0.2 U/mL diaphorase, 0.1 mM NADP^+ and 10 μM resazurin were added to the lysates. Resorufin fluorescence was determined as a measure of 2-DG uptake at ex/em 535/590 nm with a Victor Multilabel plate reader (Perkin Elmer). Blank values were subtracted from all readings and values were normalized to the DMSO control.

GLUT3 = biological target: T2, GLUT3 (Homo sapiens, UniProt P11169); test: GLUT3 transporter activity assay (2-DG uptake) in DLD-1-GLUT1-/- cells; conditions: DLD-1-GLUT1-/- cell line; read-out: GLUT3 inhibitory activity (IC50)
T2 construct: host or cells: DLD-1-GLUT1(-/-) cells
T2 sequence (P11169 1-496): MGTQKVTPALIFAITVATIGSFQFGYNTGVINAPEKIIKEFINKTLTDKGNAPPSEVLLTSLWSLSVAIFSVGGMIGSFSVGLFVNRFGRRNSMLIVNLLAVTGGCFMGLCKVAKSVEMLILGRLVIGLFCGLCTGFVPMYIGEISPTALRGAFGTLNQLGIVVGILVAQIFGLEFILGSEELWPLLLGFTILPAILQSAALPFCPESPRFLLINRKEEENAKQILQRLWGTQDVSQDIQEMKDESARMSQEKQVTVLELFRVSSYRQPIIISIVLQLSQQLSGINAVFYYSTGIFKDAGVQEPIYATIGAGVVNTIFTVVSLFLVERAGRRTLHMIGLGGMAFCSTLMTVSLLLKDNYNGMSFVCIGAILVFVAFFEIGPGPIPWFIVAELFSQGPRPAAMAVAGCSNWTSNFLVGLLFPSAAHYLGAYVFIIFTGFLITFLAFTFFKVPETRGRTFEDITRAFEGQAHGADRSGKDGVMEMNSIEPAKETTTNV
Excerpt: as §1, §2, §3, §4

GLUT4 = biological target: T3, GLUT4 (Homo sapiens, UniProt P14672); test: GLUT4 transporter activity assay (2-DG uptake) in CHO-hGLUT4 cells; conditions: CHO-hGLUT4 cell line; read-out: GLUT4 inhibitory activity (IC50)
T3 sequence (P14672 1-509): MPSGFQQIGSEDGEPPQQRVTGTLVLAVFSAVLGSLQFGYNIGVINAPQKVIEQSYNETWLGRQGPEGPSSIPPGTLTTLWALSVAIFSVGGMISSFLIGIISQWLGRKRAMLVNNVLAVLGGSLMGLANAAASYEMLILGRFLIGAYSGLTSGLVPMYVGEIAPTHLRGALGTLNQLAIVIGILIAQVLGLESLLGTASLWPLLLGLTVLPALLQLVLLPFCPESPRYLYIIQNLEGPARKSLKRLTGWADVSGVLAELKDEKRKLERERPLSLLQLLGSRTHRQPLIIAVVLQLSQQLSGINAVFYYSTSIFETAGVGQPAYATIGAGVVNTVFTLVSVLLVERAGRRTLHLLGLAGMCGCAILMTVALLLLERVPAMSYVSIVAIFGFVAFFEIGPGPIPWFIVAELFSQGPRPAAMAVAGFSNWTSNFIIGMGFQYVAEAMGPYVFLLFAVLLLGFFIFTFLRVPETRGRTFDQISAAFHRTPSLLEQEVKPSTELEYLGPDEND
Experimental: CHOK1-SLC2A4 cells were generated by transfection of CHOK1 cells with pCMV6-Entry-GLUT4 (Origene #SC125240) using Lipofectamin2000 according to the supplier's instructions. Briefly, 1.5E5 cells/well CHOK1 cells were seeded in 6-well cell culture plates. After overnight incubation, DNA-lipid complexes (2 μg plasmid DNA, DNA:lipid ratio 1:10) were prepared in OptiMEM and then added to the cells. After 5 days incubation, 800 μg G418 was added to the culture medium to generate a stable polyclone. For monoclone selection, single cells were re-plated in 96-well plates, expanded and selected by transgene overexpression and functional performance.
as §1, §2, §3, §4

SMILES	pIC50 (GLUT1)	pIC50 (GLUT3)	pIC50 (GLUT4)
CC12CC(NC(=O)N1c1cccc(C(=O)NC3CCc4ccccc4C3)c1)c1cccc(OCc3ccccc3)c1O2 (stereo not drawn) [Compound A26, 3-(10-(benzyloxy)-2-methyl-4-oxo-5,6-dihydro-2H-2,6-methanobenzo[g][1,3,5]oxadiazocin-3(4H)-yl)-N-(1,2,3,4-tetrahydronaphthalen-2-yl)benzamide]	< 4.60	5.00 to 5.40	4.60 to 5.00
CC12CC(NC(=O)N1c1cccc(C(=O)N3CCc4ccccc43)c1)c1cccc(OCc3ccccc3)c1O2 (stereo not drawn) [Compound A19, 10-(benzyloxy)-3-(3-(indoline-1-carbonyl)phenyl)-2-methyl-5,6-dihydro-2H-2,6-methanobenzo[g][1,3,5]oxadiazocin-4(3H)-one]	4.60 to 5.00	5.40 to 6.00	< 4.60
CC12CC(NC(=O)N1c1cccc(C(=O)NCc3ccccc3)c1)c1cccc(OCc3ccccc3)c1O2 (stereo not drawn) [Compound A39, 3-(10-(benzyloxy)-2-methyl-4-oxo-5,6-dihydro-2H-2,6-methanobenzo[g][1,3,5]oxadiazocin-3(4H)-yl)-N-(benzyl)benzamide]	4.60 to 5.00	5.00 to 5.40	4.60 to 5.00
CC12CC(NC(=O)N1c1cccc(C(=O)NC3Cc4ccccc4C3)c1)c1cccc(OCc3ccccc3)c1O2 (stereo not drawn) [Compound A24, 3-(10-(benzyloxy)-2-methyl-4-oxo-5,6-dihydro-2H-2,6-methanobenzo[g][1,3,5]oxadiazocin-3(4H)-yl)-N-(2,3-dihydro-1H-inden-2-yl)benzamide]	4.60 to 5.00	5.00 to 5.40	4.60 to 5.00

Further lines, results first:

pIC50 (GLUT1)	pIC50 (GLUT3)	pIC50 (GLUT4)	SMILES
≥ 6.52	≥ 6.52	5.40 to 6.00	Cc1ccc(CCNC(=O)c2cccc(N3C(=O)NC4CC3(C)Oc3c(OCc5cncc(C)c5)cccc34)c2)cc1 (stereo not drawn) [Compound A14, 3-(2-Methyl-10-((5-methylpyridin-3-yl)methoxy)-4-oxo-5,6-dihydro-2H-2,6-methanobenzo[g][1,3,5]oxadiazocin-3(4H)-yl)-N-(4-methylphenethyl)benzamide]
4.60 to 5.00	5.00 to 5.40	4.60 to 5.00	CCNC(=O)c1cccc(N2C(=O)NC3CC2(C)Oc2c(OCc4ccccc4)cccc23)c1 (stereo not drawn) [Compound A38, 3-(10-(benzyloxy)-2-methyl-4-oxo-5,6-dihydro-2H-2,6-methanobenzo[g][1,3,5]oxadiazocin-3(4H)-yl)-N-(ethyl)benzamide]
5.00 to 5.40	5.40 to 6.00	< 4.60	Cc1ccc(CCOC(=O)c2cccc(N3C(=O)NC4CC3(C)Oc3c(OCc5ccccc5)cccc34)c2)cc1 (stereo not drawn) [Compound A22, 4-methylphenethyl 3-(10-(benzyloxy)-2-methyl-4-oxo-5,6-dihydro-2H-2,6-methanobenzo[g][1,3,5]oxadiazocin-3(4H)-yl)benzoate]
5.40 to 6.00	5.40 to 6.00	< 4.60	Cc1ccc(CCNC(=O)c2cccc(N3C(=O)NC4CC3(C)Oc3c(OCc5cccnc5N)cccc34)c2)cc1 (stereo not drawn) [Compound A12, 3-(10-((2-Aminopyridin-3-yl)methoxy)-2-methyl-4-oxo-5,6-dihydro-2H-2,6-methanobenzo[g][1,3,5]oxadiazocin-3(4H)-yl)-N-(4-methylphenethyl)benzamide]
≥ 6.52	6.00 to 6.52	5.40 to 6.00	Cc1ccc(CCNC(=O)c2cccc(N3C(=O)NC4CC3(C)Oc3c(OCC5CC5)cccc34)c2)cc1 (stereo not drawn) [Compound A08, 3-(10-(Cyclopropylmethoxy)-2-methyl-4-oxo-5,6-dihydro-2H-2,6-methanobenzo[g][1,3,5]oxadiazocin-3(4H)-yl)-N-(4-methylphenethyl)benzamide]
≥ 6.52	6.00 to 6.52	5.00 to 5.40	Cc1ccc(CCNC(=O)c2cccc(N3C(=O)NC4CC3(C)Oc3c(OCc5ccncc5)cccc34)c2)cc1 (stereo not drawn) [Compound A09, 3-(2-Methyl-4-oxo-10-(pyridin-4-ylmethoxy)-5,6-dihydro-2H-2,6-methanobenzo[g][1,3,5]oxadiazocin-3(4H)-yl)-N-(4-methylphenethyl)benzamide]

Reference: patent US20210198269A1, “INHIBITORS OF GLUCOSE TRANSPORTERS (GLUTs)” (LEAD DISCOVERY CENTER GMBH, priority 2018, published 2021)
